Measurements from patent US20150018340A1, “PIPECOLATE-DIKETOAMIDES FOR TREATMENT OF PSYCHIATRIC DISORDERS” (MAX-PLANCK-GESELLSCHAFT ZUR FÖRDERUNG DER WISSENSCHAFTEN …, priority 2011, published 2015).
Where two headings read alike, the source gives them in different places.

Tests used:
[1] = target: T1, FKBP52 (FK1 domain) (Homo sapiens, UniProt Q02790); assay: Fluorescence polarization assay, binding affinity to FKBP52 (FK1 domain); conditions: fluorescence polarization assay using tracer 2b, read-out: FKBP52FK1 IC50
T1 sequence (Q02790 50-138 limits assumed): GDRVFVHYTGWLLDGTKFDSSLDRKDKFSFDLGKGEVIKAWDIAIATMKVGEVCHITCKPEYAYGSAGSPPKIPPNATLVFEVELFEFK
Procedure: (§1) The binding affinites for FKBPs were determined as described in Kozany et al., ChemBioChem 10, 8, 2009, 1402-1410 using tracer 2b.
(§2) Table 1: Chemical compounds according to formula (I) used in fluorescence polarization assay: Binding affinity to FKBP51 (FK1 domain) and FKBP52 (FK1 domain)

[2] = target: T2, FKBP51 (FK1 domain) (Homo sapiens, UniProt Q13451); assay: Fluorescence polarization assay, binding affinity to FKBP51 (FK1 domain); conditions: fluorescence polarization assay using tracer 2b, read-out: FKBP51FK1 IC50
T2 sequence (Q13451 42-130 limits assumed): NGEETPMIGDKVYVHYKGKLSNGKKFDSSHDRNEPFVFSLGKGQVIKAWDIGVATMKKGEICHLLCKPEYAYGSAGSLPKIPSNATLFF
Procedure: as §1, §2

| SMILES | IC50 [1] | IC50 [2] | IC50 ([1]; listed as 1*) | IC50 ([2]; listed as 1*) | IC50 ([1]; listed as 3*) |
| --- | --- | --- | --- | --- | --- |
| COc1ccc(CC[C@@H](OC(=O)[C@@H]2CCCCN2C(=O)C(=O)C2(O)CCCCC2C)c2cccc(OCC(=O)O)c2)cc1OC (stereo in doubt) [Compound 6, 2-(3-((R)-3-(3,4-dimethoxyphenyl)-1-((S)-1-(2-((1R,2R)-1-hydroxy-2-methylcyclohexyl)-2-oxoacetyl)piperidine-2-carbonyloxy)propyl)phenoxy) acetic acid] | 2.64 ± 0.19 µM | 4.13 ± 0.2 µM |  |  |  |
| CCC1CCCCC1(O)C(=O)C(=O)N1CCCC[C@H]1C(=O)O[C@H](CCc1ccc(OC)c(OC)c1)c1cccc(OCC(=O)O)c1 (stereo in doubt) [Compound 7, 2-(3-((R)-3-(3,4-dimethoxyphenyl)-1-((S)-1-(2-((1R,2R)-2-ethyl-1-hydroxycyclohexyl)-2-oxoacetyl)piperidine-2-carbonyloxy)propyl)phenoxy) acetic acid] | 9.77 ± 1.48 µM |  |  |  |  |
| COc1ccc(CC[C@@H](OC(=O)[C@@H]2CCCCN2C(=O)C(=O)[C@]2(O)CCCC[C@H]2C)c2cccc(OCC(=O)O)c2)cc1OC [Compound 1, 2-(3-((R)-3-(3,4-dimethoxyphenyl)-1-((S)-1-(2-((1S,2R)-1-hydroxy-2-methylcyclohexyl)-2-oxoacetyl)piperidine-2-carbonyloxy)propyl)phenoxy) acetic acid] |  |  | 2.13 ± 0.21 µM | 4.2 ± 0.11 µM |  |
| COc1ccc(CC[C@@H](OC(=O)[C@@H]2CCCCN2C(=O)C(=O)[C@]2(O)CCCC[C@H]2C)c2cccc(OCC(=O)O)c2)cc1OC [Compound 1a] | 2.44 ± 0.17 µM | 4.27 ± 0.19 µM |  |  |  |
| COc1ccc(CC[C@@H](OC(=O)[C@@H]2CCCCN2C(=O)C(=O)[C@@]2(O)CCCC[C@@H]2C)c2cccc(OCC(=O)O)c2)cc1OC [Compound 1b] | 2.88 ± 0.21 µM | 4.54 ± 0.24 µM |  |  |  |
| COc1ccc(CC[C@@H](OC(=O)[C@@H]2CCCCN2C(=O)C(=O)[C@]2(O)CCCC[C@H]2C)c2cccc(OCCN3CCOCC3)c2)cc1OC [Compound 2, (S)—((R)-3-(3,4-dimethoxyphenyl)-1-(3-(2-morpholinoethoxy)phenyl)propyl) 1-(2-((1S,2R)-1-hydroxy-2-methylcyclohexyl)-2-oxoacetyl)piperidine-2-carboxylate] | 0.89 ± 0.06 µM | 2.02 ± 0.14 µM |  |  |  |
| CC[C@@H]1CCCC[C@@]1(O)C(=O)C(=O)N1CCCC[C@H]1C(=O)O[C@H](CCc1ccc(OC)c(OC)c1)c1cccc(OCC(=O)O)c1 [Compound 3, 2-(3-((R)-3-(3,4-dimethoxyphenyl)-1-((S)-1-(2-((1S,2R)-2-ethyl-1-hydroxy-cyclohexyl)-2-oxoacetyl)piperidine-2-carbonyloxy)propyl)phenoxy) acetic acid] |  |  |  |  | 9.5 ± 1.3 µM |
| CC[C@@H]1CCCC[C@@]1(O)C(=O)C(=O)N1CCCC[C@H]1C(=O)O[C@H](CCc1ccc(OC)c(OC)c1)c1cccc(OCC(=O)O)c1 [Compound 3a] | 4.2 ± 0.3 µM |  |  |  |  |
| CC[C@H]1CCCC[C@]1(O)C(=O)C(=O)N1CCCC[C@H]1C(=O)O[C@H](CCc1ccc(OC)c(OC)c1)c1cccc(OCC(=O)O)c1 [Compound 3b] | 3.5 ± 0.6 µM |  |  |  |  |
| CC[C@@H]1CCCC[C@@]1(O)C(=O)C(=O)N1CCCC[C@H]1C(=O)O[C@H](CCc1ccc(OC)c(OC)c1)c1cccc(OCCN2CCOCC2)c1 [Compound 4, (S)—((R)-3-(3,4-dimethoxyphenyl)-1-(3-(2-morpholinoethoxy)phenyl)propyl)1-(2-((1S,2R)-2-ethyl-1-hydroxycyclohexyl)-2-oxoacetyl)piperidine-2-carboxylate] | 3.72 ± 1.02 µM | 9.66 ± 0.83 µM |  |  |  |
| COc1ccc(CC[C@@H](OC(=O)[C@@H]2CCCCN2C(=O)C(=O)[C@]2(O)CCCC[C@H]2CO)c2cccc(OCC(=O)O)c2)cc1OC [Compound 5, 2-(3-((R)-3-(3,4-dimethoxyphenyl)-1-((S)-1-(2-((1S,2S)-1-hydroxy-2-(hydroxylmethyl)cyclohexyl)-2-oxoacetyl)piperidine-2-carbonyloxy)propyl)phenoxy)acetic acid] | 6.2 ± 0.5 µM | 8.5 ± 0.6 µM |  |  |  |
| COc1ccc(CC[C@@H](OC(=O)[C@@H]2CCCCN2C(=O)C(=O)[C@]2(O)CCCC[C@@H]2C)c2cccc(OCC(=O)O)c2)cc1OC [Compound 6a] | 2.2 ± 0.13 µM | 4.18 ± 0.15 µM |  |  |  |
| COc1ccc(CC[C@@H](OC(=O)[C@@H]2CCCCN2C(=O)C(=O)[C@@]2(O)CCCC[C@H]2C)c2cccc(OCC(=O)O)c2)cc1OC [Compound 6b] | 2.64 ± 0.25 µM | 4.96 ± 0.25 µM |  |  |  |
| COc1ccc(CC[C@@H](OC(=O)[C@@H]2CCCCN2C(=O)C(=O)C2CCCCC2)c2cccc(OCC(=O)O)c2)cc1OC [Compound 8] | 9.53 ± 1.35 µM | 15.2 ± 1.04 µM |  |  |  |
| COc1ccc(CC[C@@H](OC(=O)[C@@H]2CCCCN2C(=O)C(=O)c2cc(OC)c(OC)c(OC)c2)c2cccc(OCC(=O)O)c2)cc1OC [Compound 9, 2-(3-((R)-3-(3,4-dimethoxyphenyl)-1-((S)-1-(2-oxo-2-(3,4,5-tri-methoxyphenyl)acetyl)piperidine-2-carbonyloxy)propyl)phenoxy)acetic acid] | 11.6 ± 1.6 µM | 19.3 ± 6.6 µM |  |  |  |
| COc1ccc(CC[C@@H](OC(=O)[C@@H]2CCCCN2C(=O)C(=O)c2ccc(Oc3ccccc3)cc2)c2cccc(OCC(=O)O)c2)cc1OC [Compound 10, 2-(3-((R)-3-(3,4-dimethoxyphenyl)-1-((S)-1-(2-oxo-2-(4-phenoxy-phenyl)acetyl)piperidine-2-carbonyloxy)propyl)phenoxy)acetic acid] | 1.71 ± 0.35 µM | 2.83 ± 0.21 µM |  |  |  |
| COc1ccc(CC[C@@H](OC(=O)[C@@H]2CCCCN2C(=O)C(=O)c2cc(Cl)cc(Cl)c2)c2cccc(OCC(=O)O)c2)cc1OC [Compound 11, 2-(3-((R)-3-(3,4-dimethoxyphenyl)-1-((S)-1-(2-oxo-2-(3,5-dichloro-phenyl)acetyl)piperidine-2-carbonyloxy)propyl)phenoxy)acetic acid] | 5.6 ± 1.1 µM | 4.1 ± 0.8 µM |  |  |  |
| COc1ccc(CCOC(=O)C2CCCCN2C(=O)C(=O)[C@]2(O)CCCC[C@H]2C)cc1OC (stereo partly drawn) [Reference Example 1*, 3,4-dimethoxyphenethyl 1-(2-((1S,2R)-1-hydroxy-2-methyl-cyclohexyl)-2-oxoacetyl)piperidine-2-carboxylate, reference compound] | > 100 µM | > 100 µM |  |  |  |
| COc1ccc(OCCOC(=O)C2CCCCN2C(=O)C(=O)[C@]2(O)CCCC[C@H]2C)cc1OC (stereo partly drawn) [Reference Example 2*, 2-(3,4-dimethoxyphenoxy)ethyl 1-(2-((1S,2R)-1-hydroxy-2-methyl-cyclohexyl)-2-oxoacetyl)piperidine-2-carboxylate, reference compound] | 11.7 ± 6.4 µM | 29.4 ± 8.5 µM |  |  |  |
| CC[C@@H]1CCCC[C@@]1(O)C(=O)C(=O)N1CCCCC1C(=O)OCCOc1ccc(OC)c(OC)c1 (stereo partly drawn) [Reference Example 3*, 2-(3,4-dimethoxyphenoxy)ethyl 1-(2-((1S,2R)-2-ethyl-1-hydroxy-cyclohexyl)-2-oxoacetyl) piperidine-2-carboxylate, reference compound] | > 100 µM | > 100 µM |  |  |  |
| CCC(C)(C)C(=O)C(=O)N1CCC[C@H]1C(=O)O[C@H](CCc1ccc(OC)c(OC)c1)c1cccc(OCC(=O)O)c1 [Reference Example 4, 2-(3-((R)-3-(3,4-dimethoxyphenyl)-1-((S)-1-(3,3-dimethyl-2-oxopentanoyl)-pyrrolidine-2-carbonyloxy)propyl)phenoxy)acetic acid, reference compound] | 41.6 ± 15.8 µM | 51.5 ± 31.9 µM |  |  |  |
| CCC(C)(C)C(=O)C(=O)N1CC=CC[C@H]1C(=O)O[C@H](CCc1ccc(OC)c(OC)c1)c1cccc(OCC(=O)O)c1 [Reference Example 5, 2-(3-((R)-3-(3,4-dimethoxyphenyl)-1-((S)-1-(3,3-dimethyl-2-oxopentanoyl)-1,2,3,6-tetrahydropyridine-2-carbonyloxy)propyl)phenoxy)acetic acid, reference compound] | 49.2 ± 24.6 µM | 32.7 ± 12.3 µM |  |  |  |
| COc1ccc(CC[C@@H](OC(=O)[C@@H]2CCCCN2C(=O)C(=O)C(C)(C)C)c2cccc(OCC(=O)O)c2)cc1OC [Reference Example 6, reference compound] | 46.2 ± 18.8 µM | 38.4 ± 16.5 µM |  |  |  |
| O=C(C(=O)N1CCCCC1C(=O)OCCCc1ccccc1)c1ccccc1 (stereo not drawn) [Reference Example 7, reference compound] | > 100 µM | > 100 µM |  |  |  |
| CCC(C)(C)C(=O)C(=O)N1CCCC1C(=O)OC(CCc1ccccc1)c1ccccc1 (stereo not drawn) [Reference Example 8, reference compound] | > 100 µM | 89.5 ± 21.7 µM |  |  |  |
| CC(C)C(C)(C)C(=O)C(=O)N1CCCC[C@H]1C(=O)O[C@H](CCc1ccccc1)c1ccccc1 [Reference Example 9, reference compound] | 61.2 ± 23.7 µM | 55.6 ± 13.1 µM |  |  |  |
